Experimental data reported in BindingDB's records for doi:10.1016/j.ejmech.2016.09.002 (King Fahd University of Petroleum and Minerals, 2016).

Experiment: Inhibition of recombinant GGT1 (unknown origin) using GGPP as substrate preincubated for 5 mins followed by protein addition measured over 20 mins by fluorescence assay

IC50 [µM]	Compound
22.9	CSCCc1c(-c2cccnc2)nn(-c2ccc(Cl)c(Cl)c2)c1OCCCNC(=O)[C@H](Cc1ccccc1)NC(C)=O

Experiment: as above
Remark: another data set of the same source

Compound	IC50 [µM]
COc1ccc(C[C@H](NS(C)(=O)=O)C(=O)NCCCOc2c(CCSC)c(-c3cccnc3)nn2-c2ccc(Cl)c(Cl)c2)cc1	9.9
CSCCc1c(-c2cccnc2)nn(-c2ccc(Cl)c(Cl)c2)c1OCCCNC(=O)[C@H](Cc1cccnc1)NC(C)=O	> 50
CSCCc1c(-c2cccnc2)nn(-c2ccc(Cl)c(Cl)c2)c1OCCCNC(=O)[C@H](Cc1ccccc1)NS(C)(=O)=O	31.9
CSCCc1c(-c2cccnc2)nn(-c2ccc(Cl)c(Cl)c2)c1OCCCNC(=O)[C@H](Cc1ccc(F)cc1)NS(C)(=O)=O	19.7
CSCCc1c(-c2cccnc2)nn(-c2ccc(Cl)c(Cl)c2)c1OCCCNC(=O)[C@H](Cc1cccnc1)NS(C)(=O)=O	> 50
COc1ccc(C[C@H](NC(C)=O)C(=O)NCCCOc2c(CCSC)c(-c3cccnc3)nn2-c2ccc(Cl)c(Cl)c2)cc1	34.8
CSCCc1c(-c2cccnc2)nn(-c2ccc(Cl)c(Cl)c2)c1OCCCC(=O)N[C@@H](Cc1cccnc1)C(N)=O	11.6

Second part, the molecule after the results:

IC50 [µM]	Compound
3.1	COc1ccc(C[C@H](NC(=O)CCCOc2c(CCSC)c(-c3cccnc3)nn2-c2ccc(Cl)c(Cl)c2)C(N)=O)cc1
7.8	CSCCc1c(-c2cccnc2)nn(-c2ccc(Cl)c(Cl)c2)c1OCCCC(=O)N[C@@H](Cc1ccncc1)C(N)=O
2.4	CSCCc1c(-c2cccnc2)nn(-c2ccc(Cl)c(Cl)c2)c1OCCCC(=O)N[C@@H](Cc1ccc(F)cc1)C(N)=O
3.3	CSCCc1c(-c2cccnc2)nn(-c2ccc(Cl)c(Cl)c2)c1OCCCC(=O)N[C@@H](Cc1ccccc1)C(N)=O [N-[(S)-1-carbamoyl-2-phenylethyl]-4-[2-(3,4-di-chlorophenyl)-4-(2-methylsulfanylethyl)-5-pyridin-3-yl-2-H-pyrazol-3-yloxy]butyramide]
